According to patent US20250215177A1, “BLOWING AGENT, FOAMING RESIN COMPOSITION, POLYUREA RESIN FOAM, AND PRODUCTION METHOD FOR POLYUREA RESIN FOAM” (MITSUBISHI GAS CHEMICAL COMPANY, INC., priority 2022, published 2025):

Columns and labels:
Format in all cases: physicochemical
[1] = Percentage increase of mass of amine compound left to stand in air (absorption of carbon dioxide); details: 23° C. and 50% RH
Description: Percentage increase of mass of cyclic amine compound (a1) [% by mass]=100×amount of increase of mass of cyclic amine compound (a1)(g)/(mass of cyclic amine compound (a1)(g)+amount of increase of mass of cyclic amine compound (a1)(g)).
[…] By doing so 1,3-BAC and carbon dioxide in the air were reacted to give a blowing agent (carbonate of 1,3-BAC). At that stage, to suppress uneven reaction, the container in which the amine compound was placed was shaken as necessary so as not to leave unreacted 1,3-BAC.
Next, the amount of increase of the mass of 1,3-BAC was measured and the percentage increase of the mass of the amine compound was calculated by the following equation.

[2] = Amine value of amine compound (JIS K7237-1995 titration); details: titration with 0.1 N perchloric acid-acetic acid
Description: The amine value was measured by the following measurement method according to JIS K7237-1995. • (1) 0.1 g of the amine compound was dissolved in 20 mL of acetic acid. • (2) The amine value was calculated by titrating the solution prepared in (1) above with 0.1 N perchloric acid-acetic acid solution using an automatic potentiometric titrator (AT-610 made by Kyoto Electronics Manufacturing Co., Ltd.)

[3] = Maximum endothermic temperature of amine compound (DTA); details: heating rate 10° C./minute, 23 to 350° C., nitrogen; evaporation of amine compound
Description: The cyclic amine compound (a1) is heated at a heating rate of 10° C./minute from 23° C. to 350° C. and the temperature at which the amount of heat absorbed due to evaporation of the amine compound (a1) reaches the maximum is measured, and the temperature is defined as the maximum endothermic temperature of the amine compound (a1).
The maximum endothermic temperature of the amine compound was measured by subjecting the amine compound to DTA as described below. First, […] of the amine compound was performed under conditions of a temperature range of 23 to 350° C., a heating rate of 10° C./minute and a nitrogen atmosphere using a differential thermogravimeter (product name DTG-60 made by Shimadzu Corporation). The temperature at which the amount of heat absorbed due to the evaporation of the amine compound was the maximum was calculated from the DTA curve obtained, and the temperature was determined as the maximum endothermic temperature of the amine compound.

[4] = Acid dissociation constant (pKa) of amine compound (potentiometric titration); details: in purified water, 25±2° C.
Description: The acid dissociation constant of the amine compound was measured by the following measurement method. • (1) 0.2 g of the amine compound was dissolved in 30 mL of purified water. • (2) The acid dissociation constant (pKa) was calculated by titrating the solution prepared in (1) above with 0.1 N perchloric acid-acetic acid solution using an automatic potentiometric titrator (AT-610 made by Kyoto Electronics Manufacturing Co., Ltd.). The temperature in the measurement was 25±2° C.

[5] = Maximum carbon dioxide (CO2) release temperature of amine compound (DSC after CO2 absorption in air); details: amine compound after 24 hours in air at 23° C. and 50% RH; heating rate 10° C./minute, 23 to 250° C., nitrogen
Description: The cyclic amine compound (a1) with carbon dioxide absorbed is heated at a heating rate of 10° C./minute from 23° C. to 250° C., and the temperature at which the amount of heat absorbed due to desorption of carbon dioxide reaches the maximum is measured, and the temperature is defined as the maximum carbon dioxide release temperature. In this regard the cyclic amine compound (a1) with carbon dioxide absorbed may be prepared by leaving 5 mmol of the cyclic amine compound (a1) to stand in air at 23° C. and 50% RH for 24 hours.
A carbon dioxide detector and a Petri dish were placed in an openable desiccator (inner dimension: 370 mm×260 mm×272 mm). […]
Then the amine compound was taken out of the desiccator to give an amine compound with carbon dioxide absorbed. The maximum carbon dioxide release temperature of the amine compound with carbon dioxide absorbed was measured by subjecting the amine compound to DSC as described below. […] The temperature at which the amount of heat absorbed due to the desorption of carbon dioxide was the maximum was calculated from the DSC curve obtained, and the temperature was determined as the maximum carbon dioxide release temperature of the amine compound.

Percentage increase of mass ([1]; CO2 absorption time 10 weeks) [% by mass]	Amine value [2] [mgKOH/g]	Percentage increase of mass ([1]; CO2 absorption time 1 week) [% by mass]	Maximum endothermic temperature [3] [°C]	pKa [4]	Maximum CO2 release temperature [5] [°C]	Compound
22.5	789	–	–	–	–	NCC1CCCC(CN)C1 (stereo not shown) [1,3-BAC, 1,3-bis(aminomethyl)cyclohexane]
–	824	–	–	–	–	NCc1cccc(CN)c1 [MXDA, metaxylylenediamine]
–	–	44.3	126.7	9.8	103.4	NCCN [Ethylenediamine, ethylenediamine]
